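Step 1: Grow cells in 96-well plates. Step 2: Expose to compound for 48 hours at 5 concentrations. Step 3: Interpolate endpoints linearly; if unreached, use highest concentration. At the GI50, growth is halved.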 Calls of active or inactive are those of the source. Rule as the data show it: active = GI50 up to about 1.1 µM and inactive = higher.
Tests used:
Test in all cases: NCI tumour cell line growth inhibition, 48 h
M14 = test system: M14
HOP-62 = test system: HOP-62
ACHN = test system: ACHN
OVCAR-4 = test system: OVCAR-4
IGROV-1 = test system: IGROV-1
COLO 205 = test system: COLO 205
786-0 = test system: 786-0
SW-620 = test system: SW-620
TK-10 = test system: TK-10
SK-MEL-28 = test system: SK-MEL-28
LOX IMVI = test system: LOX IMVI
MDA-MB-435 = test system: MDA-MB-435
SK-MEL-2 = test system: SK-MEL-2
HCC 2998 = test system: HCC 2998
HOP-92 = test system: HOP-92
KM12 = test system: KM12
NCI-H23 = test system: NCI-H23
CCRF-CEM = test system: CCRF-CEM
SK-OV-3 = test system: SK-OV-3
SNB-19 = test system: SNB-19

Compound	GI50 (M14)	GI50 (HOP-62)	GI50 (ACHN)	GI50 (OVCAR-4)	GI50 (IGROV-1)	GI50 (COLO 205)	GI50 (786-0)	GI50 (SW-620)	GI50 (TK-10)	GI50 (SK-MEL-28)	GI50 (LOX IMVI)	GI50 (MDA-MB-435)	GI50 (SK-MEL-2)	GI50 (HCC 2998)	GI50 (HOP-92)	GI50 (KM12)	GI50 (NCI-H23)	GI50 (CCRF-CEM)	GI50 (SK-OV-3)	GI50 (SNB-19)
COC(=O)CNC(=O)CCC(C)[C@H]1CCC2C3C(C[C@H](OC(C)=O)[C@@]21C)[C@@]1(C)CCC2(C[C@H]1C[C@H]3OC(C)=O)OOC1(CCCCC1)OO2 (stereo not given in full)	3.91 µM (inactive)	0.579 µM (active)	1.89 µM (inactive)	1.83 µM (inactive)	1.4 µM (inactive)	1.91 µM (inactive)	2.04 µM (inactive)	2.24 µM (inactive)	11.2 µM (inactive)	9.29 µM (inactive)	2.12 µM (inactive)	2.07 µM (inactive)	2.24 µM (inactive)	2 µM (inactive)	1.08 µM (active)	2.01 µM (inactive)	1.91 µM (inactive)	2.1 µM (inactive)	12.4 µM (inactive)	4.63 µM (inactive)
CSc1cc(-c2cccs2)sc1-c1cc(SC)c(-c2sc(-c3sc(-c4cccs4)cc3SC)cc2SC)s1	> 100 µM (inactive)	> 100 µM (inactive)	> 100 µM (inactive)	> 100 µM (inactive)	> 100 µM (inactive)	> 100 µM (inactive)	> 100 µM (inactive)	> 100 µM (inactive)	> 100 µM (inactive)	> 100 µM (inactive)	> 100 µM (inactive)	> 100 µM (inactive)	> 100 µM (inactive)	> 100 µM (inactive)	> 100 µM (inactive)	> 100 µM (inactive)	> 100 µM (inactive)	> 100 µM (inactive)	> 100 µM (inactive)	> 100 µM (inactive)
CN(Nc1cc(=O)[nH]c(=O)[nH]1)c1ccccc1	> 100 µM (inactive)	> 100 µM (inactive)	> 100 µM (inactive)	> 100 µM (inactive)	> 100 µM (inactive)	> 100 µM (inactive)	> 100 µM (inactive)	> 100 µM (inactive)	> 100 µM (inactive)	> 100 µM (inactive)	> 100 µM (inactive)	> 100 µM (inactive)	> 100 µM (inactive)	> 100 µM (inactive)	> 100 µM (inactive)	> 100 µM (inactive)	> 100 µM (inactive)	> 100 µM (inactive)	> 100 µM (inactive)	> 100 µM (inactive)
CCCCCCCC/C=C\CCCCCCCC(=O)OC[C@]1(CO)CCC(=O)O1	> 100 µM (inactive)	> 100 µM (inactive)	> 100 µM (inactive)	> 100 µM (inactive)	> 100 µM (inactive)	> 100 µM (inactive)	> 100 µM (inactive)	> 100 µM (inactive)	> 100 µM (inactive)	> 100 µM (inactive)	> 100 µM (inactive)	> 100 µM (inactive)	> 100 µM (inactive)	> 100 µM (inactive)	> 100 µM (inactive)	> 100 µM (inactive)	> 100 µM (inactive)	> 100 µM (inactive)	> 100 µM (inactive)	> 100 µM (inactive)
C=C1C(=O)OC2/C=C(\CO)C3OC3C3OC3(C)CC(OC(=O)/C(=C/C)COC(C)=O)C12 (stereo not given)	2.75 µM (inactive)	21.6 µM (inactive)	3.4 µM (inactive)	8.3 µM (inactive)	13.2 µM (inactive)	1.63 µM (inactive)	2.29 µM (inactive)	1.35 µM (inactive)	2.94 µM (inactive)	1.82 µM (inactive)	1.51 µM (inactive)	2.59 µM (inactive)	3.31 µM (inactive)	16.5 µM (inactive)	2.01 µM (inactive)	7.31 µM (inactive)	6.93 µM (inactive)	2.29 µM (inactive)	18.2 µM (inactive)	15.1 µM (inactive)

Reference: ChEMBL document CHEMBL1201862, “PubChem BioAssay data set” (2004)
